# Earlier results as cited in patent publication US10564084B2, “Rapid characterization of the solubility of amphiphiles” (The Trustees of Princeton University, priority 2013, dated 2020).
# Details: in water; used to rescale the concentration c
compound,measurement,value
"CCCCCCCCCCCCCCCC[N+](C)(C)C.[Cl-] [C16TAC, hexadecyl trimethylammonium chloride]",critical micellar concentration cmc,1.6 mM
